Source: patent publication US8551526B2, “Preparation of drug particles using evaporation precipitation into aqueous solutions” (Board of Regents, The University of Texas System, priority 2000, dated 2013)
Values joined by “and” are separate entries in the source; they are usually repeats but may differ in a detail not shown here. Identical values can stand only once.

How the values were obtained:
Assay type in all cases: physicochemical
[1] = BET surface area of danazol dry powders
Experimental: (§1) Two percent (2%) w/v danazol solution in dichloromethane was sprayed at a flow rate of 1 ml/min into 100 ml aqueous solution containing 1% w/v excipient or a excipient mixture at 1:1 w/w ratio, if two surfactants were used, to stabilize the drug particles. The temperatures of both heating jacket and water bath were 80° C. and the pressure drop was 3500-4000 psi. After 25 minutes spray, a suspension with drug to excipient ratio of 0.5 was recovered and the particle size of the danazol particles was measured with Malvern Mastersizer-S. The suspensions were centrifuged (BECKMAN, Model TJ-6, USA) at 3000 rpm for 30 mins. The supernatants were poured out and the precipitates were placed into a vacuum oven and dried at 40° C., and −30 in Hg for 3-4 hrs. The crystallinity of the dry powders was examined by x-ray diffraction (PW1720, PHILIPS). The surface area of the dry powders was measured with a high-speed surface area BET analyzer (NOVA 2000, Quantachrome Instruments, USA).

[2] = Particle size distribution by static light scattering (Malvern Mastersizer-S) and redispersibility; conditions: after centrifugation and vacuum drying
Source text: The organic danazol solution was fed by an HPLC pump through a 3 m long 1/16 in. o.d.×0.030 in. i.d. stainless steel coiled tube contained within a 1½″ OD×24″ long plastic water jacket (Alltech). Water was circulated through the jacket with a JULABO MP temperature controller. The organic solution was atomized through an unheated insulated adjustable restrictor (5 mm dia.×136 mm long, ISCO, USA) into hot water. Atomization was achieved by adjusting the nozzle valve manually to maintain a pressure drop to about 3500 psi. The aqueous stabilizing solution was contained in a 250 ml plastic submerged in a temperature-controlled water bath. The nozzle was submerged approximately 10 cm under the surface of the aqueous solution. […] After spraying for a required time to produce the desired drug/excipient ratio, the suspension was recovered and analyzed within 30 mins to determine the particle size by light scattering with a Malvern Mastersizer-S (Malvern Instruments Ltd., U. K.).
Two percent (2%) w/v danazol solution in dichloromethane was sprayed at a flow rate of 1 ml/min into 100 ml aqueous solution containing 1% w/v excipient or a excipient mixture at 1:1 w/w ratio, if two surfactants were used, to stabilize the drug particles. […] The surface area of the dry powders was measured with a high-speed surface area BET analyzer (NOVA 2000, Quantachrome Instruments, USA). […]

[3] = X-ray diffraction of danazol dry powders
Experimental: as §1
X-ray diffraction was used to analyze the crystallinity of the dry powders. […] The a-peak heights of danazol in different excipient systems at 2θ=15° are listed in Table N. The reduction in crystallinity was less than 20% after correction for the presence of 10% w/w excipient. It was assumed that the danazol peak height was linear in concentration for a fixed weight. […]

[4] = Contact angle of water on compressed dry powder tablet; conditions: distilled water drop on compressed tablet
Experimental: […] was filled into a 0.7 cm diameter flat faced die and compressed with a Carver Laboratory Press (Model M, Fred S. Carver Inc, WIS, USA) at 1500 kgf into a tablet. A drop of […] distilled water was placed on the surface of the tablet and contact angle was measured from the tangential angle of the water drop with help of a camera (Panasonic WV-1410, Philippines).

Question: What does the source list for `C#C[C@]1(O)CC[C@H]2[C@@H]3CCC4=Cc5oncc5C[C@]4(C)[C@H]3CC[C@@]21C` [Bulk danazol, danazol]?
Answer: Surface Area of the dry powder [1]: 0.52 m^2/g; D (v, 0.5) redispersed dry powders ([2]; cell marked (30s)): 21.07 (30s) μm; D (v, 0.5) redispersed dry powders w/o ultrasonic ([2]; redispersed in distilled water): 29.63 μm; Peak height of danazol x-ray diffraction at 2θ = 15° [3]: 3182 counts; Contact angle of dry powder after centrifugation and drying [4]: 61.5 ° and 61.0 °
